We go through 8 cell lines from the supplement of paper PMC10307832.

What all share (assay): relative viability (nuclei count vs DMSO), 5 days (fraction); higher = more cells survive
Compound in the experiment “Linsitinib + Trametinib”: C[C@]1(O)C[C@@H](c2nc(-c3ccc4ccc(-c5ccccc5)nc4c3)c3c(N)nccn32)C1 [Linsitinib] + CC(=O)Nc1cccc(-n2c(=O)n(C3CC3)c(=O)c3c(Nc4ccc(I)cc4F)n(C)c(=O)c(C)c32)c1 [Trametinib] (partner 0.02 µM)
The essentials:
(§1)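 After 5 days of treatment, lung cancer cells in 1536-well plates were fixed and stained in a single step (final 0.05% Triton X-100, 1% formaldehyde, 1 ug/ml Hoechst) and their nuclei counted on 4× images. Treatment had been applied by pin tool the day after seeding as one drug alone or as a fixed anchor-drug dose with five library-drug doses (not always all listed) in √10 steps. Relative viability is the nuclei count of treated wells divided by that of vehicle wells, and values are medians of duplicate plates.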

Compound in the experiment “Linsitinib + Pemetrexed”: C[C@]1(O)C[C@@H](c2nc(-c3ccc4ccc(-c5ccccc5)nc4c3)c3c(N)nccn32)C1 [Linsitinib] + Nc1nc2[nH]cc(CCc3ccc(C(=O)N[C@@H](CCC(=O)O)C(=O)O)cc3)c2c(=O)[nH]1 [Pemetrexed] (partner 0.2 µM)
In short, it runs like this:
as §1

Compound in the experiment “Ispinesib + Luminespib”: Cc1ccc(C(=O)N(CCCN)[C@@H](c2nc3cc(Cl)ccc3c(=O)n2Cc2ccccc2)C(C)C)cc1 [Ispinesib] + CCNC(=O)c1noc(-c2cc(C(C)C)c(O)cc2O)c1-c1ccc(CN2CCOCC2)cc1 [Luminespib] (partner 0.01 µM)
In short, it runs like this:
as §1

Compound in the experiment “Linsitinib + Palbociclib”: C[C@]1(O)C[C@@H](c2nc(-c3ccc4ccc(-c5ccccc5)nc4c3)c3c(N)nccn32)C1 [Linsitinib] + CC(=O)c1c(C)c2cnc(Nc3ccc(N4CCNCC4)cn3)nc2n(C2CCCC2)c1=O [Palbociclib] (partner 0.5 µM)
In short, it runs like this: as §1

Regarding NCI-H522, the relative viability worked out at 0.918 with Linsitinib + Trametinib (first compound 0.01 µM); 0.784 with Linsitinib + Trametinib (first compound 0.03162 µM); 0.714 in the experiment with Linsitinib + Trametinib (first compound 0.1 µM); 0.613 in the experiment with Linsitinib + Trametinib (first compound 0.3162 µM); 0.582 in the experiment with Linsitinib + Trametinib (first compound 1 µM); 0.831 with Linsitinib + Pemetrexed (first compound 0.01 µM). Moreover, the relative viability was determined as 0.839 with Linsitinib + Pemetrexed (first compound 0.03162 µM); 1.01 in the experiment with Linsitinib + Pemetrexed (first compound 0.1 µM); 0.652 with Linsitinib + Pemetrexed (first compound 0.3162 µM); 0.839 with Linsitinib + Pemetrexed (first compound 1 µM); 1.02 with Ispinesib + Luminespib (first compound 0.001 µM); 1.1 with Ispinesib + Luminespib (first compound 0.003162 µM). In addition, the relative viability came out at 1.17 in the experiment with Ispinesib + Luminespib (first compound 0.01 µM); 0.922 with Ispinesib + Luminespib (first compound 0.03162 µM); 1.11 with Ispinesib + Luminespib (first compound 0.1 µM); 1.01 in the experiment with Linsitinib + Palbociclib (first compound 0.01 µM); 0.83 in the experiment with Linsitinib + Palbociclib (first compound 0.03162 µM); 1.04 with Linsitinib + Palbociclib (first compound 0.1 µM). Also, the values for the relative viability in the experiment with Linsitinib + Palbociclib (first compound 0.3162 µM) and with Linsitinib + Palbociclib (first compound 1 µM) were 0.673 and 0.977, respectively.

On to NCI-H650, for which the relative viability is 1.04 in the experiment with Linsitinib + Trametinib (first compound 0.01 µM); 1.06 with Linsitinib + Trametinib (first compound 0.03162 µM); 0.902 with Linsitinib + Trametinib (first compound 0.1 µM); 0.87 with Linsitinib + Trametinib (first compound 1 µM); 0.878 in the experiment with Linsitinib + Pemetrexed (first compound 0.01 µM); 1.05 with Linsitinib + Pemetrexed (first compound 0.03162 µM). In addition, the relative viability was 0.923 with Linsitinib + Pemetrexed (first compound 0.1 µM); 0.739 in the experiment with Linsitinib + Pemetrexed (first compound 1 µM); 0.739 with Ispinesib + Luminespib (first compound 0.001 µM); 0.836 in the experiment with Ispinesib + Luminespib (first compound 0.003162 µM); 0.808 with Ispinesib + Luminespib (first compound 0.01 µM); 0.621 with Ispinesib + Luminespib (first compound 0.03162 µM). Also, the relative viability with Ispinesib + Luminespib (first compound 0.1 µM) was found to be 0.783; in the experiment with Linsitinib + Palbociclib (first compound 0.01 µM), 0.348; with Linsitinib + Palbociclib (first compound 0.03162 µM) it was 0.364; with Linsitinib + Palbociclib (first compound 0.1 µM), 0.339; in the experiment with Linsitinib + Palbociclib (first compound 1 µM), 0.291.

For NCI-H460, the relative viability in the experiment with Linsitinib + Trametinib (first compound 0.01 µM) was determined as 0.136; with Linsitinib + Trametinib (first compound 0.03162 µM), 0.137; with Linsitinib + Trametinib (first compound 0.1 µM) it was 0.196; with Linsitinib + Trametinib (first compound 1 µM) it was 0.0792; with Linsitinib + Pemetrexed (first compound 0.01 µM), 0.0547; in the experiment with Linsitinib + Pemetrexed (first compound 0.03162 µM) it was 0.0538. Further, the relative viability amounted to 0.065 in the experiment with Linsitinib + Pemetrexed (first compound 0.1 µM); 0.0715 with Linsitinib + Pemetrexed (first compound 1 µM); 0.022 with Ispinesib + Luminespib (first compound 0.001 µM); 0.0333 in the experiment with Ispinesib + Luminespib (first compound 0.003162 µM); 0.0413 in the experiment with Ispinesib + Luminespib (first compound 0.01 µM); 0.0267 with Ispinesib + Luminespib (first compound 0.03162 µM). Also, the relative viability with Ispinesib + Luminespib (first compound 0.1 µM) is 0.0268; in the experiment with Linsitinib + Palbociclib (first compound 0.01 µM), 0.192; in the experiment with Linsitinib + Palbociclib (first compound 0.03162 µM), 0.0289; in the experiment with Linsitinib + Palbociclib (first compound 0.1 µM) it was 0.184; with Linsitinib + Palbociclib (first compound 1 µM), 0.142.

For NCI-H2228, the relative viability stood at 0.569 with Linsitinib + Trametinib (first compound 0.01 µM); 0.595 with Linsitinib + Trametinib (first compound 0.03162 µM); 0.378 in the experiment with Linsitinib + Trametinib (first compound 0.1 µM); 0.347 in the experiment with Linsitinib + Trametinib (first compound 0.3162 µM); 0.363 with Linsitinib + Trametinib (first compound 1 µM); 0.398 in the experiment with Linsitinib + Pemetrexed (first compound 0.01 µM). Further, the relative viability worked out at 0.297 with Linsitinib + Pemetrexed (first compound 0.03162 µM); 0.357 with Linsitinib + Pemetrexed (first compound 0.1 µM); 0.311 in the experiment with Linsitinib + Pemetrexed (first compound 0.3162 µM); 0.331 with Linsitinib + Pemetrexed (first compound 1 µM); 0.121 in the experiment with Ispinesib + Luminespib (first compound 0.001 µM); 0.14 with Ispinesib + Luminespib (first compound 0.003162 µM). Moreover, the relative viability with Ispinesib + Luminespib (first compound 0.01 µM) stood at 0.228; in the experiment with Ispinesib + Luminespib (first compound 0.03162 µM) it was 0.127; with Ispinesib + Luminespib (first compound 0.1 µM) it was 0.159; with Linsitinib + Palbociclib (first compound 0.01 µM) it was 0.809; in the experiment with Linsitinib + Palbociclib (first compound 0.03162 µM), 0.62; with Linsitinib + Palbociclib (first compound 0.1 µM), 0.619. The relative viability was 0.546 in the experiment with Linsitinib + Palbociclib (first compound 0.3162 µM) and 0.513 with Linsitinib + Palbociclib (first compound 1 µM).

With NCI-H2085, the relative viability worked out at 0.557 in the experiment with Linsitinib + Trametinib (first compound 0.01 µM); 0.644 in the experiment with Linsitinib + Trametinib (first compound 0.03162 µM); 0.503 in the experiment with Linsitinib + Trametinib (first compound 0.1 µM); 0.449 with Linsitinib + Trametinib (first compound 0.3162 µM); 0.514 with Linsitinib + Trametinib (first compound 1 µM); 0.887 with Linsitinib + Pemetrexed (first compound 0.01 µM). Besides, the relative viability in the experiment with Linsitinib + Pemetrexed (first compound 0.03162 µM) was determined as 0.887; in the experiment with Linsitinib + Pemetrexed (first compound 0.1 µM) it was 0.934; in the experiment with Linsitinib + Pemetrexed (first compound 0.3162 µM), 0.928; with Linsitinib + Pemetrexed (first compound 1 µM), 0.905; in the experiment with Ispinesib + Luminespib (first compound 0.001 µM) it was 0.484; in the experiment with Ispinesib + Luminespib (first compound 0.003162 µM) it was 0.421. Also, the relative viability with Ispinesib + Luminespib (first compound 0.01 µM) was determined as 0.491; in the experiment with Ispinesib + Luminespib (first compound 0.03162 µM), 0.401; with Ispinesib + Luminespib (first compound 0.1 µM), 0.447; with Linsitinib + Palbociclib (first compound 0.01 µM) it was 0.434; with Linsitinib + Palbociclib (first compound 0.03162 µM) it was 0.465; with Linsitinib + Palbociclib (first compound 0.1 µM), 0.493. The relative viability in the experiment with Linsitinib + Palbociclib (first compound 0.3162 µM) was 0.445; with Linsitinib + Palbociclib (first compound 1 µM), 0.478.

As for EPLC-272H, the relative viability with Linsitinib + Trametinib (first compound 0.01 µM) amounted to 0.245; with Linsitinib + Trametinib (first compound 0.03162 µM), 0.25; with Linsitinib + Trametinib (first compound 0.1 µM), 0.296; in the experiment with Linsitinib + Trametinib (first compound 1 µM) it was 0.26; with Linsitinib + Pemetrexed (first compound 0.01 µM) it was 0.366; with Linsitinib + Pemetrexed (first compound 0.03162 µM), 0.193. For the same cell line, the relative viability in the experiment with Linsitinib + Pemetrexed (first compound 0.1 µM) was found to be 0.325; in the experiment with Linsitinib + Pemetrexed (first compound 0.3162 µM), 0.244; in the experiment with Linsitinib + Pemetrexed (first compound 1 µM), 0.32; with Ispinesib + Luminespib (first compound 0.001 µM), 0.215; with Ispinesib + Luminespib (first compound 0.003162 µM), 0.326; in the experiment with Ispinesib + Luminespib (first compound 0.01 µM), 0.25. Moreover, the relative viability in the experiment with Ispinesib + Luminespib (first compound 0.03162 µM) was 0.196; with Ispinesib + Luminespib (first compound 0.1 µM), 0.234; with Linsitinib + Palbociclib (first compound 0.01 µM), 0.337; with Linsitinib + Palbociclib (first compound 0.03162 µM), 0.351; with Linsitinib + Palbociclib (first compound 0.1 µM), 0.327; in the experiment with Linsitinib + Palbociclib (first compound 1 µM), 0.335.

As to 201T, the relative viability with Linsitinib + Trametinib (first compound 0.01 µM) came out at 0.7; in the experiment with Linsitinib + Trametinib (first compound 0.03162 µM) it was 0.736; in the experiment with Linsitinib + Trametinib (first compound 0.1 µM), 0.702; in the experiment with Linsitinib + Trametinib (first compound 0.3162 µM) it was 0.72; with Linsitinib + Trametinib (first compound 1 µM) it was 0.753; in the experiment with Linsitinib + Pemetrexed (first compound 0.01 µM), 0.319. Moreover, the relative viability with Linsitinib + Pemetrexed (first compound 0.03162 µM) turned out to be 0.272; in the experiment with Linsitinib + Pemetrexed (first compound 0.1 µM) it was 0.343; in the experiment with Linsitinib + Pemetrexed (first compound 0.3162 µM) it was 0.287; with Linsitinib + Pemetrexed (first compound 1 µM), 0.29; in the experiment with Ispinesib + Luminespib (first compound 0.001 µM), 1.07; in the experiment with Ispinesib + Luminespib (first compound 0.003162 µM), 1.05. Also, the relative viability with Ispinesib + Luminespib (first compound 0.01 µM) came out at 1.15; with Ispinesib + Luminespib (first compound 0.03162 µM) it was 0.988; with Ispinesib + Luminespib (first compound 0.1 µM), 0.937; with Linsitinib + Palbociclib (first compound 0.01 µM), 0.357; in the experiment with Linsitinib + Palbociclib (first compound 0.03162 µM), 0.371; with Linsitinib + Palbociclib (first compound 0.1 µM) it was 0.374. Moreover, the relative viability was found to be 0.364 in the experiment with Linsitinib + Palbociclib (first compound 0.3162 µM) and 0.374 with Linsitinib + Palbociclib (first compound 1 µM).

Regarding NCI-H3122, the relative viability came to 0.259 with Linsitinib + Trametinib (first compound 0.01 µM); 0.213 in the experiment with Linsitinib + Trametinib (first compound 0.03162 µM); 0.253 in the experiment with Linsitinib + Trametinib (first compound 0.1 µM); 0.232 with Linsitinib + Trametinib (first compound 1 µM); 0.18 in the experiment with Linsitinib + Pemetrexed (first compound 0.01 µM); 0.177 with Linsitinib + Pemetrexed (first compound 0.03162 µM). Also, the relative viability with Linsitinib + Pemetrexed (first compound 0.1 µM) is 0.212; in the experiment with Linsitinib + Pemetrexed (first compound 0.3162 µM), 0.184; in the experiment with Linsitinib + Pemetrexed (first compound 1 µM), 0.196; with Ispinesib + Luminespib (first compound 0.001 µM), 0.105; with Ispinesib + Luminespib (first compound 0.003162 µM), 0.12; with Ispinesib + Luminespib (first compound 0.01 µM), 0.0892. Moreover, the relative viability was determined as 0.0855 with Ispinesib + Luminespib (first compound 0.03162 µM); 0.0889 with Ispinesib + Luminespib (first compound 0.1 µM); 0.202 with Linsitinib + Palbociclib (first compound 0.01 µM); 0.222 in the experiment with Linsitinib + Palbociclib (first compound 0.03162 µM); 0.17 with Linsitinib + Palbociclib (first compound 0.1 µM); 0.216 in the experiment with Linsitinib + Palbociclib (first compound 1 µM).
